Reference: article PMC10133546, “Simultaneous determination of multiple components in rat plasma by UHPLC-sMRM for pharmacokinetic studies after oral administration of Qingjin Yiqi Granules” (Frontiers in Pharmacology, 2023)

Columns and labels:
[1] = Stability of the working solution (4°C for 1 month); format: physicochemical
Experimental: The stability of analytes in plasma was evaluated by analyzing 4 QC samples (n = 6). The stability was included auto-sampler stability (keeping the sample in auto-sampler for 24 h), three times of freeze-thaw cycles stability (freezing cycle at −80°C, thawing cycle at room temperature), room temperature stability (storing samples at room temperature for 24 h), long-term stability (storing samples at −80°C for 1 month). […] Accompanying curve was established when testing the sample, calculate and compare the ratio of the actual measured concentration to the theoretical concentration, expressed in accuracy and RSD.

[2] = Stability of analytes in rat plasma (auto-sampler, freeze-thaw, room temperature, long-term); conditions: for Autosampler for 24 h Accuracy (%): autosampler 24 h; for Room temperature for 24 h Accuracy (%): room temperature 24 h; for Freeze thaw cycles Accuracy (%): three freeze-thaw cycles

| SMILES | Working solution Accuracy (%) ([1]; 1.56 ng/mL) | Working solution Accuracy (%) ([1]; 12.5 ng/mL) | Working solution Accuracy (%) ([1]; 500 ng/mL) | Autosampler for 24 h Accuracy (%) ([2]; 1.56 ng/mL) | Room temperature for 24 h Accuracy (%) ([2]; 1.56 ng/mL) | Freeze thaw cycles Accuracy (%) ([2]; 1.56 ng/mL) | −80°C for 1month Accuracy (%) ([2]; 1.56 ng/mL, −80°C 1 month) | Autosampler for 24 h Accuracy (%) ([2]; 12.5 ng/mL) | Room temperature for 24 h Accuracy (%) ([2]; 12.5 ng/mL) | Freeze thaw cycles Accuracy (%) ([2]; 12.5 ng/mL) | Autosampler for 24 h Accuracy (%) ([2]; 100 ng/mL) | Room temperature for 24 h Accuracy (%) ([2]; 100 ng/mL) | Freeze thaw cycles Accuracy (%) ([2]; 100 ng/mL) | Room temperature for 24 h Accuracy (%) ([2]; 500 ng/mL) | Freeze thaw cycles Accuracy (%) ([2]; 500 ng/mL) | −80°C for 1month Accuracy (%) ([2]; 12.5 ng/mL, −80°C 1 month) | −80°C for 1month Accuracy (%) ([2]; 100 ng/mL, −80°C 1 month) | Autosampler for 24 h Accuracy (%) ([2]; 500 ng/mL) | −80°C for 1month Accuracy (%) ([2]; 500 ng/mL, −80°C 1 month) | Working solution Accuracy (%) ([1]; 100 ng/mL) | further results |
| --- | --- | --- | --- | --- | --- | --- | --- | --- | --- | --- | --- | --- | --- | --- | --- | --- | --- | --- | --- | --- | --- |
| C[C@]1(OC(=O)/C=C/c2ccccc2)C[C@@H](O)[C@]2(O)C=CO[C@@H](O[C@@H]3O[C@H](CO)[C@@H](O)[C@H](O)[C@H]3O)[C@@H]21 [harpagoside] | 83.8% | 105.0% | 88.5% | 105.0% | 95.0% | 91.5% | 86.6% | 101.0% | 108.0% | 98.1% | 93.8% | 100.0% | 93.2% | 95.7% | 95.1% |  |  |  |  |  |  |
| COc1c2ccoc2c(OC)c2oc(=O)ccc12 [isopimpinellin (IS)] |  |  |  |  |  |  |  |  |  |  |  |  |  |  |  |  |  |  |  |  | Working solution Accuracy (%) ([1]; concentration 100 ng/mL): 93.5%; Autosampler for 24 h Accuracy (%) ([2]; concentration 100 ng/mL): 98.6%; Room temperature for 24 h Accuracy (%) ([2]; concentration 100 ng/mL): 96.5%; Freeze thaw cycles Accuracy (%) ([2]; concentration 100 ng/mL): 88.2%; −80°C for 1month Accuracy (%) ([2]; −80°C for 1 month, concentration 100 ng/mL): 109.0% |
| O=c1cc(-c2ccccc2)oc2cc(O)c(O)c(O)c12 [baicalein] |  |  |  |  |  |  |  | 97.0% | 91.4% | 97.4% | 92.4% |  | 98.2% | 91.0% | 94.0% | 99.7% | 95.5% | 93.2% | 104.0% |  | Autosampler for 24 h Accuracy (%) ([2]; 50 ng/mL): 92.3%; Room temperature for 24 h Accuracy (%) ([2]; 50 ng/mL): 85.5%; −80°C for 1month Accuracy (%) ([2]; 50 ng/mL, −80°C 1 month): 90.6% |
| O=c1cc(-c2ccc(O)cc2)oc2c([C@@H]3O[C@H](CO)[C@@H](O)[C@H](O)[C@H]3O)c(O)cc(O)c12 [vitexin] | 95.6% | 88.3% | 106.0% | 95.0% | 92.0% | 103.0% | 90.4% | 93.5% | 105.0% | 92.0% | 93.2% | 88.3% | 85.5% | 107.0% | 108.0% | 106.0% | 93.2% | 92.4% | 92.6% | 89.9% |  |
| CC(C)=CCC[C@](C)(O)[C@H]1CC[C@]2(C)[C@@H]1[C@H](O)C[C@@H]1[C@@]3(C)CC[C@H](O)C(C)(C)[C@@H]3[C@@H](O[C@@H]3O[C@H](CO)[C@@H](O)[C@H](O)[C@H]3O[C@@H]3O[C@H](CO)[C@@H](O)[C@H](O)[C@H]3O)C[C@]12C [ginsenoside Rf] |  | 91.9% | 102.0% |  |  |  |  | 112.0% | 96.1% | 97.2% | 88.2% | 96.8% | 89.7% | 113.0% |  | 97.1% |  |  | 112.0% | 110.0% | Working solution Accuracy (%) ([1]; 50 ng/mL): 94.9%; Autosampler for 24 h Accuracy (%) ([2]; 50 ng/mL): 98.9%; Freeze thaw cycles Accuracy (%) ([2]; 50 ng/mL): 88.0%; −80°C for 1month Accuracy (%) ([2]; 50 ng/mL, −80°C 1 month): 89.6% |
| C[C@@]12C[C@@]3(O)O[C@@H](O1)[C@]1(COC(=O)c4ccccc4)[C@H]3C[C@@]12O[C@@H]1O[C@H](CO)[C@@H](O)[C@H](O)[C@H]1O [paeoniflorin] |  | 106.0% | 93.2% |  |  |  |  | 86.8% | 106.0% | 97.6% | 111.0% | 86.8% | 93.4% | 92.2% | 93.1% | 97.6% | 95.2% | 92.0% | 95.3% |  | Autosampler for 24 h Accuracy (%) ([2]; 50 ng/mL): 97.6%; Room temperature for 24 h Accuracy (%) ([2]; 50 ng/mL): 106.0%; Freeze thaw cycles Accuracy (%) ([2]; 50 ng/mL): 94.1%; −80°C for 1month Accuracy (%) ([2]; 50 ng/mL, −80°C 1 month): 96.4% |
| C[C@@H]1O[C@@H](Oc2c(-c3ccc(O)c(O)c3)oc3cc(O)cc(O)c3c2=O)[C@H](O)[C@H](O)[C@H]1O [quercitrin] | 92.6% |  | 99.1% | 95.2% | 85.2% | 86.2% | 86.7% | 94.7% | 87.1% | 90.0% | 98.3% | 99.6% | 100.0% | 98.0% | 89.3% | 97.1% | 95.6% | 108.0% | 96.0% | 90.4% |  |
| O=C1C[C@@H](c2ccc(O)cc2)Oc2cc(O)cc(O)c21 [naringenin] |  | 93.5% | 98.2% |  |  |  |  |  | 94.4% | 97.6% | 99.5% | 92.9% |  | 95.2% |  | 85.7% | 97.4% | 107.0% | 94.2% | 85.6% | Working solution Accuracy (%) ([1]; 50 ng/mL): 102.0%; Autosampler for 24 h Accuracy (%) ([2]; 50 ng/mL): 98.3%; −80°C for 1month Accuracy (%) ([2]; 50 ng/mL, −80°C 1 month): 98.2% |
| COc1c2c(cc3oc(CO)cc(=O)c13)O[C@H](C(C)(C)O)C2 [cimifugin] | 90.5% | 100.0% | 86.7% | 102.0% | 92.4% | 84.5% | 83.9% | 91.1% |  | 92.0% | 100.0% | 98.0% | 95.7% | 98.6% | 93.2% | 96.3% | 99.6% | 102.0% | 95.2% |  |  |
| COc1ccc(-c2oc3c(CC=C(C)C)c(O[C@@H]4O[C@H](CO)[C@@H](O)[C@H](O)[C@H]4O)cc(O)c3c(=O)c2O[C@@H]2O[C@@H](C)[C@H](O)[C@@H](O)[C@H]2O)cc1 [icariin (IS)] |  |  |  |  |  |  |  |  |  |  |  |  |  |  |  |  |  |  |  |  | Working solution Accuracy (%) ([1]; concentration 100 ng/mL): 94.8% |
| O.Oc1cc(O)c2c(c1)O[C@H](c1ccc(O)c(O)c1)[C@@H](O)C2 [catechin] |  | 91.6% | 100.0% |  |  |  |  |  |  |  |  |  |  |  |  |  |  |  |  | 97.4% | Working solution Accuracy (%) ([1]; 50 ng/mL): 106.0% |
